Where a name gives a salt, the structure may show the parent alone.
System: Conscious guinea pigs exposed to an aerosol of methacholine
Assay: Methacholine aerosol collapse time in conscious guinea pigs (anticholinergic test)
Type: in vivo
Details: 25 mg/kg intraperitoneally, 10 minutes methacholine aerosol; for (Minutes Protection): collapse time, Control 1.9 to 2.0
Protocol: Conscious guinea pigs, six at a time, are put into a sealed chamber and exposed for 10 minutes to an aerosol of methacholine.

| SMILES | (Minutes Protection) [min] | (Minutes Protection), given in words (time not given) |
| --- | --- | --- |
| Cc1cc2oc(=O)c3c(c2cc1Cl)CCN(CCN1CC2CCC(CC2)C1)C3 [R1=Cl, R2=Me, R3=H, X=drawing 10, 3-[2-(3-Azabicyclo[3.2.2]non-3-yl)ethyl]-9-chloro-1,2,3,4-tetrahydro-8-methyl-5H-[1]benzopyrano[3,4-c]pyridin-5-one] | 2.1 | – |
| Cc1cc2oc(=O)c3c(c2cc1[N+](=O)[O-])CCN(CCN1CC2CCC(CC2)C1)C3 [R1=NO2, R2=Me, R3=H, X=drawing 10, 3-[2-(3-Azabicyclo[3.2.2]non-3-yl)ethyl]-1,2,3,4-tetrahydro-8-methyl-9-nitro-5H-[1]benzopyrano[3,4-c]pyridin-5-one] | 1.9 | – |
| COc1cc2oc(=O)c3c(c2cc1OC)CCN(CCN1CC2CCC(CC2)C1)C3.Cl.Cl [R1=MeO, R2=MeO, R3=H, X=drawing 10, 3-[2-(3-Azabicyclo[3.2.2]non-3-yl)ethyl]-1,2,3,4-tetrahydro-8,9-dimethoxy-5H-[1]benzopyrano[3,4-c]pyridin-5-one dihydrochloride] | – | Active |
| CCOc1cc2oc(=O)c3c(c2cc1OCC)CCN(CCN1CC2CCC(CC2)C1)C3 [R1=EtO, R2=EtO, R3=H, X=drawing 10, 3-[2-(3-Azabicyclo[3.2.2]non-3-yl)ethyl]-1,2,3,4-tetrahydro-8,9-diethoxy-5H-[1]benzopyrano[3,4-c]pyridin-5-one] | 6.3 | – |
| CC(C)c1ccc2c3c(c(=O)oc2c1)CN(CCN1CC2CCC(CC2)C1)CC3.Cl.Cl [R1=H, R2=CHMe2, R3=H, X=drawing 10, 3-[2-(3-Azabicyclo[3.2.2]non-3-yl)ethyl]-1,2,3,4-tetrahydro-8-(1-methylethyl)-5H-[1]benzopyrano[3,4-c]pyridin-5-one dihydrochloride] | 6.2 | – |
| O=c1oc2ccccc2c2c1CN(CCN1CC3CCCC(C3)C1)CC2 [R1=H, R2=H, R3=H, X=drawing 12, 3-[2-(3-Azabicyclo[3.3.1]non-3-yl)ethyl]-1,2,3,4-tetrahydro-5H-[1]benzopyrano[3,4-c]pyridin-5-one] | 3.3 | – |
| COc1ccc2c3c(c(=O)oc2c1OC)CN(CCN1CC2CCC(CC2)C1)CC3.Cl.Cl [R1=H, R2=MeO, R3=MeO, X=drawing 10, 3-[2-(3-Azabicyclo[3.2.2]non-3-yl)ethyl]-1,2,3,4-tetrahydro-7,8-dimethoxy-5H-[1]benzopyrano[3,4-c]pyridin-5-one dihydrochloride] | 3.0 | – |
| CCc1ccc2c3c(c(=O)oc2c1)CN(CCN1CC2CCC(CC2)C1)CC3.Cl.Cl [R1=H, R2=Et, R3=H, X=drawing 10, 3-(2-(3-Azabicyclo[3,2,2]non-3-yl)ethyl]-8-ethyl-1,2,3,4-tetrahydro-5H-benzopyrano[3,4-c]pyridin-5-one, dihydrochloride] | 6.8 | – |
| Cc1cc2oc(=O)c3c(c2cc1N)CCN(CCN1CC2CCC(CC2)C1)C3 [R1=NH2, R2=Me, R3=H, X=drawing 10, 9-Amino-3-[2-(3-azabicyclo[3.2.2]non-3-yl)ethyl]-1,2,3,4-tetrahydro-8-methyl-5H-[1]benzopyrano[3,4-c]pyridin-5-one] | 1.9 | – |
| COc1cc2oc(=O)c3c(c2cc1OC)CCN(CCN1CC2CCCC(C2)C1)C3 [R1=MeO, R2=MeO, R3=H, X=drawing 12, 3-[2-(3-Azabicyclo[3.3.1]non-3-yl)ethyl]-1,2,3,4-tetrahydro-8,9-dimethoxy-5H-[1]benzopyrano[3,4-c]pyridin-5-one] | 6.6 | – |
| Cc1cc2oc(=O)c3c(c2cc1Cl)CCN(CCN1CC2CCCC(C2)C1)C3 [R1=Cl, R2=Me, R3=H, X=drawing 12] | 2.6 | – |
| O=c1oc2ccccc2c2c1CN(CCN1CC3CCC(CC3)C1)CC2 [R1=H, R2=H, R3=H, X=drawing 10, 3-[2-(3-Azabicyclo[3.2.2]non-3-yl)ethyl]-1,2,3,4-tetrahydro-5H-[1]benzopyrano[3,4-c]pyridin-5-one] | 5.2 | – |
| Cc1ccc2c3c(c(=O)oc2c1)CN(CCN1CC2CCC1CC2)CC3 [R1=H, R2=Me, R3=H, X=drawing 11, 3-[2-(2-Azabicyclo[2.2.2]oct-2-yl)ethyl]-1,2,3,4-tetrahydro-8-methyl-5H-[1]benzopyrano[3,4-c]pyridin-5-one] | 2.3 | – |
| COc1ccc2c3c(c(=O)oc2c1)CN(CCN1CC2CCC(CC2)C1)CC3.Cl.Cl [R1=H, R2=MeO, R3=H, X=drawing 10, 3-[2-(3-Azabicyclo[3.2.2]non-3-yl)ethyl]-1,2,3,4-tetrahydro-8-methoxy-5H-[1]benzopyrano[3,4-c]pyridin-5-one, dihydrochloride] | 6.0 | – |
| COc1ccc2c3c(c(=O)oc2c1)CN(CCN1CC2CCC1CC2)CC3 [R1=H, R2=MeO, R3=H, X=drawing 11, 3-[2-(2-Azabicyclo[2.2.2]oct-2-yl)ethyl]-1,2,3,4-tetrahydro-8-methoxy-5H-[1]benzopyrano[3,4-c]pyridin-5-one] | 10.0 | – |
| Cc1ccc2c3c(c(=O)oc2c1)CN(CCN1CC2CCC(CC2)C1)CC3 [R1=H, R2=Me, R3=H, X=drawing 10, 3-[2-(3-Azabicyclo[3.2.2]non-3-yl)ethyl]-1,2,3,4-tetrahydro-8-methyl-5H-[1]benzopyrano[3,4-c]pyridin-5-one] | 5.0 | – |
| COc1ccc2c3c(c(=O)oc2c1)CN(CCN1CC2CCCC(C2)C1)CC3 [R1=H, R2=MeO, R3=H, X=drawing 12, 3-[2-(3-Azabicyclo[3.3.1]non-3-yl)ethyl]-1,2,3,4-tetrahydro-8-methoxy-5H-[1]benzopyrano[3,4-c]pyridin-5-one] | 7.3 | – |
| O=c1oc2cc(O)ccc2c2c1CN(CCN1CC3CCC(CC3)C1)CC2 [R1=H, R2=OH, R3=H, X=drawing 10] | 6.1 | – |
| Cc1cc2oc(=O)c3c(c2cc1NC(=O)c1ccccc1)CCN(CCN1CC2CCC(CC2)C1)C3 [R1=NHCOPh, R2=Me, R3=H, X=drawing 10, N-{3-[2-(3-Azabicyclo[3.2.2]non-3-yl)ethyl]-1,3,4,5-tetrahydro-8-methyl-5-oxo-2H-[1]benzopyrano[3,4-c]pyridin-9-yl}-benzamide] | 3.8 | – |
| O=c1oc2c(ccc3ccccc32)c2c1CN(CCN1CC3CCC(CC3)C1)CC2 [R1=H, R2+R3=CH CHCHCH, X=drawing 10, 2-[2-(3-Azabicyclo[3.2.2]non-3-yl)ethyl]-1,2,3,4-tetrahydro-12H-naphtho[2',1',:5,6]pyrano[3,4-c]pyridin-12-one dihydrochloride] | 2.7 | – |
| Cl.Cl.O=c1oc2cc(-c3ccccc3)ccc2c2c1CN(CCN1CC3CCC(CC3)C1)CC2 [R1=H, R2=Ph, R3=H, X=drawing 10, 3-[2-(3-Azabicyclo[3.2.2]non-3-yl)ethyl]-1,2,3,4-tetrahydro-8-phenyl-5H-[1]benzopyrano[3,4-c]pyridin-5-one, dihydrochloride] | 2.1 | – |
| Cc1ccc2c3c(c(=O)oc2c1)CN(CCN1CC2CCCC(C2)C1)CC3 [R1=H, R2=Me, R3=H, X=drawing 12, 3-[2-(3-Azabicyclo[3.3.1]non-3-yl)ethyl]-1,2,3,4-tetrahydro-8-methyl-5H-[1]benzopyrano[3,4-c]pyridin-5-one] | 3.1 | – |

Reference: patent publication US4404138A, “3-[2-(Azabicyclo) ethyl]-1,2,3,4-tetrahydro-5H-[1]benzopyrano[3,4-c]pyridin-5-ones” (Warner-Lambert Company, priority 1982, dated 1983)
